US20250213647A1, “CHEMOKINE RECEPTORS AND ALPHA1 ADRENERGIC RECEPTORS/VASOPRESSIN RECEPTORS 1A HETEROMERS AS DRUG TARGETS FOR DISEASE” (UNIVERSITY OF SOUTH FLORIDA, priority 2022, published 2025)

How the values were obtained:
α1b-AR:CCR2 heteromer = target: T1, α1b-AR:CCR2 heteromer (Homo sapiens, UniProt P35368+P41597); assay: Gαi activation assay (TRUPATH BRET), HEK293T cells transfected with CCR2 plus α1b-AR; type: cell-based; conditions: for Gαi1 activation by the ligand alone: cells transfected with α1b-AR alone, CCR2 alone or CCR2 plus α1b-AR, FIG. 4A
T1 construct: expressed in transfected cells; host or cells: HEK293T
T1 sequence (P41597 whole entry, one chain of several): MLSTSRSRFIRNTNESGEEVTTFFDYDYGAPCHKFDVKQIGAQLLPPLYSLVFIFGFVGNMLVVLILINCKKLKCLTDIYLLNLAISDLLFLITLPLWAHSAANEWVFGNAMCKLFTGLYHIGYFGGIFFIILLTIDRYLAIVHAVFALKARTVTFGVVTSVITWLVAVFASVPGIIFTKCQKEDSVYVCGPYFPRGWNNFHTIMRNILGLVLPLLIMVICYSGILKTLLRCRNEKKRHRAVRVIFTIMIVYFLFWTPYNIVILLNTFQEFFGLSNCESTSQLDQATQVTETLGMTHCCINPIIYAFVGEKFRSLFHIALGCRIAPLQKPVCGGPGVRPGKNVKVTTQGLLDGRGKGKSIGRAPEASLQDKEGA
Experimental: HEK293T cells were plated in a 6-well plate and transfected with 0.2 μg each of Gαi1-Rluc8, Gβ3 and Gγ9-GFP2 (Trupath) together with 0.2 μg of mouse or human CCR2 with either pcDNA3.1 or α1b-AR. One day after transfection, cells were trypsinized and replated to 96-well poly-L lysine precoated plates. After overnight incubation, cells were replaced with 0.1% glucose/PBS. Prolume Purple (NanoLight Tech.) or coelenterazine 400a in a final concentration of 5 μM were added in experiments with human or mouse CCR2, respectively, and incubated at room temperature for 3 min. Ligands at various concentrations were added to cells and incubated at room temperature for 5 min before luminescence was measured at 410 nm and 515 nm. […] The BRET changes were calculated by subtracting the BRET signal of untreated cells.

[1] = system: THP-1 cells (CCR2-mediated Gαi signaling); assay: Cyclic AMP measurement in forskolin-stimulated THP-1 cells; type: cell-based, human; conditions: forskolin-stimulated THP-1 cells; 1 μM PE, 1 μM PT or 100 nM NE; 15 min at 37° C.; FIG. 4G, 4H
Experimental: Cyclic AMP amounts were measured using the cAMP complete enzyme immunoassay kit, acetylated format (Enzo Life Sciences). 4×10^5 cells were incubated with forskolin/isobutylmethylxanthine (10 μM/0.5 mM final concentrations) in 0.1% BSA/10 mM Hepes-buffered RPMI and treated with CCL2 in the presence or absence of 1 μM PE, 1 μM PT or 100 nM NE at 37° C. for 15 min. The cells were lysed by incubating with 0.1 M HCl at room temperature for 20 min. The cAMP amounts in the lysate supernatant were measured following the manufacturer's instructions.

CCR2 = CCR2 (Homo sapiens, UniProt P41597); assay: PRESTO-Tango β-arrestin recruitment assay, HTLA cells with CCR2-Tango plus pcDNA3; type: cell-based; conditions: absence of α1b-AR; FIG. 5A
CCR2, sequence (P41597 whole entry): as the sequence (P41597 whole entry, one chain of several) above
Experimental: The assays were performed as described previously (Albee, 2017; Gao, 2022; Albee, 2018; Eby, 2017; Cheng, 2017). HTLA cells were seeded in a 6-well plate and transfected with 750 ng FLAG-CCR2-Tango together with 750 ng pcDNA3.1 or HA-α1b-AR using TransIT-2020 Transfection Reagent. The next day, cells (75,000 cells/well) were plated onto poly-L-Lysine pre-coated 96-well plates and allowed to attach to the plate surface for at least 4 hours prior to treatment. Cells were treated with receptor ligands at the concentrations indicated in the figure legends for 2 h and then replaced with fresh full medium and incubated overnight at 37° C., 5% CO2 in a humidified environment. The following morning, medium was replaced with a 100 μL 1:10 mixture of Bright-Glo (Promega) and PBS. Plates were then incubated at room temperature for 10 min before measuring luminescence on a Biotek Synergy II plate reader. Relative luminescence units (RLU) are expressed as fold changes of RLU vs unstimulated cells.

CCR1 = assay: Chemotaxis assay, THP-1 cells toward CCL23 (CCR1-mediated); type: cell-based, human; conditions: CCL23 10 nM, mean±SE, read-out: IC50 for inhibition of CCR1-mediated chemotaxis
Experimental: (§1) Cell migration was measured employing the Neuroprobe (Gaithersburg, MD, USA) ChemoTx® Disposable Chemotaxis System. A 96-well Boyden-chamber (30 μL/well, 8 μm pores, 1×10^5 pores/cm^2 pore density) was selected for all chemotaxis experiments. Bottom wells of the Boyden-chamber were loaded with 30 μL of test substances at various concentrations. Top wells of the membrane were loaded with 25 μL of THP-1 cells, THP-1_ADRA1B^KO, wild type THP-1 cells after clonal expansion (=control for THP-1_ADRA1B^KO) or freshly isolated monocytes (200 cells/μL). THP-1 cells were suspended in depleted RPMI1640 (0.5% HyClone™ fetal bovine serum, Sigma); Freshly isolated monocytes were suspended in RPMI1640 (0.5% human platelet poor plasma, Sigma). After 3 hours, transmigrated cells were counted utilizing the Cytation 1 plate reader (BioTek) by direct imaging in high contrast bright field (4×) and post-imaging particle analyses with Gen5 (v3.05) Imaging & Microscopy Software (BioTek). The chemotactic index (CI) was calculated as the ratio of cells that transmigrated in the presence versus the absence of the test solutions.

CXCR4 = assay: Chemotaxis assay, THP-1 cells toward CXCL12 (CXCR4-mediated); type: cell-based, human; conditions: CXCL12 100 nM, mean±SE, read-out: IC50 for inhibition of CXCR4-mediated chemotaxis
Experimental: as §1

CCR8 = assay: Chemotaxis assay, THP-1 cells toward CCL1 (CCR8-mediated); type: cell-based, human
Experimental: as §1

[2] = system: CR heteromerization partners of α1B/D-ARs (CCR1, CCR2, CXCR4); assay: Chemotaxis assay, THP-1 cells, CR heteromerization partners of α1B/D-ARs taken together; type: cell-based, human; conditions: for chemotactic dose-responses for CCL23, CCL2 and CXCL12 in the presence of the ligand: 10 μM of phenylephrine or phentolamine, FIG. 17G-17I
Experimental: as §1

[3] = system: heteromeric complexes between α1B/D-ARs and CCR1, CCR2, CXCR4; assay: Proximity ligation assay, receptor-receptor interactions on THP-1 cells; conditions: 10 μM, 30 min at 37° C.; FIG. 8
[4] = target: T2, heteromerization between α1b-AR and CCR2 (Homo sapiens, UniProt P35368); assay: Saturation BRET to assess receptor heterodimerization (α1b-AR-RlucII / CCR2-EYFP, HEK293T); conditions: 10 μM ligand, 5 min; for BRETmax: FIG. 3B; for BRET50 values: FIG. 3C
T2 sequence (P35368 1-520): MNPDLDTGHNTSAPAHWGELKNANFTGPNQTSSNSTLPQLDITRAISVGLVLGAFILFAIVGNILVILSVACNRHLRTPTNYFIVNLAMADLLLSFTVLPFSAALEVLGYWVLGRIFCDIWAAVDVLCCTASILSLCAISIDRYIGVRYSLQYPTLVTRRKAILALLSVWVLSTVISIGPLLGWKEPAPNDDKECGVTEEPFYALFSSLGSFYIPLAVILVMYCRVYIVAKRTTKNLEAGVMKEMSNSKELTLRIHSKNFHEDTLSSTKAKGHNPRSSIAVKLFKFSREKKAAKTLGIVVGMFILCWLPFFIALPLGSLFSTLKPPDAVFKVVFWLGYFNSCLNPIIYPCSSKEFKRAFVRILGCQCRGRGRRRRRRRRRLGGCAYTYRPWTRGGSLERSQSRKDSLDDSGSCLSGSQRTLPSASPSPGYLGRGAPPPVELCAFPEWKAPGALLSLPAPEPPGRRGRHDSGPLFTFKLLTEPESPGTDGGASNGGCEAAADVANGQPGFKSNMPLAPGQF

bottom plateau, CCL2-induced Gαi activation in the presence of the ligand (α1b-AR:CCR2 heteromer; CCL2 plus 10 μM PT, FIG. 4F) | SMILES | Gαi1 activation by the ligand alone (α1b-AR:CCR2 heteromer) | effect on the effects of CCL2 on cAMP production [1] | β-arrestin recruitment to CCR2-Tango by the ligand (CCR2) | IC50 (CCR1) | IC50 (CXCR4) | CCR8-mediated chemotaxis (CCR8) | chemotactic dose-responses for CCL23, CCL2 and CXCL12 in the presence of the ligand [2] | heteromeric complexes between α1B/D-ARs and their chemokine heteromerization partners (PLA signals) [3] | BRETmax [4] | BRET50 values [4] | bottom plateau, CCL2-induced Gαi activation in the presence of the ligand (α1b-AR:CCR2 heteromer; CCL2 plus 1 μM NE, FIG. 4D) | bottom plateau, CCL2-induced Gαi activation in the presence of the ligand (α1b-AR:CCR2 heteromer; CCL2 plus 10 μM PE, FIG. 4C) | inhibition of chemotaxis mediated via CR heteromerization partners of α1B/D-ARs ([2]; FIG. 17A)
−0.033±0.002 | Cc1ccc(N(CC2=NCCN2)c2cccc(O)c2)cc1 [phentolamine] | did not activate Gαi1 | inhibited the effects of CCL2 on cAMP production | did not induce | 0.03 ± 0.08 nM | 0.2 ± 0.2 nM | did not affect | inhibited chemotaxis over the complete range of chemokine concentrations | reduced | did not affect | significantly increased |  |  | 
 | CNC[C@H](O)c1cccc(O)c1 [phenylephrine] | did not activate Gαi1 | inhibited the effects of CCL2 on cAMP production | did not induce | 5 ± 6.7 nM | 17 ± 29 nM | did not affect | inhibited chemotaxis over the complete range of chemokine concentrations | reduced | did not affect | significantly increased | −0.031±0.002 | −0.03±0.002 | 50-55%
